Experimental data reported in the kinase profiling compilation of Christmann-Franck et al. (2016).

What was measured:
Test in all cases: radiometric filter-binding kinase assay, Kinase HotSpot
Settings in all cases: compound 0.5 µM; ATP 10 µM
ERBB2 (human) = ERBB2 (human) (UniProt P04626)
BRSK1 (human) = BRSK1 (human) (UniProt Q8TDC3)
BTK (human) = BTK (human) (UniProt Q06187)
TGFBR1 (human) = TGFBR1 (human) (UniProt P36897)
MAPK1 (human) = MAPK1 (human) (UniProt P28482)
MAP4K5 (human) = MAP4K5 (human) (UniProt Q9Y4K4)
SRPK3 (human) = SRPK3 (human) (UniProt Q9UPE1)
CAMK1 (human) = CAMK1 (human) (UniProt Q14012)
EPHB1 (human) = EPHB1 (human) (UniProt P54762)
Sequence of EPHB1 (human) (P54762 whole entry, looked up): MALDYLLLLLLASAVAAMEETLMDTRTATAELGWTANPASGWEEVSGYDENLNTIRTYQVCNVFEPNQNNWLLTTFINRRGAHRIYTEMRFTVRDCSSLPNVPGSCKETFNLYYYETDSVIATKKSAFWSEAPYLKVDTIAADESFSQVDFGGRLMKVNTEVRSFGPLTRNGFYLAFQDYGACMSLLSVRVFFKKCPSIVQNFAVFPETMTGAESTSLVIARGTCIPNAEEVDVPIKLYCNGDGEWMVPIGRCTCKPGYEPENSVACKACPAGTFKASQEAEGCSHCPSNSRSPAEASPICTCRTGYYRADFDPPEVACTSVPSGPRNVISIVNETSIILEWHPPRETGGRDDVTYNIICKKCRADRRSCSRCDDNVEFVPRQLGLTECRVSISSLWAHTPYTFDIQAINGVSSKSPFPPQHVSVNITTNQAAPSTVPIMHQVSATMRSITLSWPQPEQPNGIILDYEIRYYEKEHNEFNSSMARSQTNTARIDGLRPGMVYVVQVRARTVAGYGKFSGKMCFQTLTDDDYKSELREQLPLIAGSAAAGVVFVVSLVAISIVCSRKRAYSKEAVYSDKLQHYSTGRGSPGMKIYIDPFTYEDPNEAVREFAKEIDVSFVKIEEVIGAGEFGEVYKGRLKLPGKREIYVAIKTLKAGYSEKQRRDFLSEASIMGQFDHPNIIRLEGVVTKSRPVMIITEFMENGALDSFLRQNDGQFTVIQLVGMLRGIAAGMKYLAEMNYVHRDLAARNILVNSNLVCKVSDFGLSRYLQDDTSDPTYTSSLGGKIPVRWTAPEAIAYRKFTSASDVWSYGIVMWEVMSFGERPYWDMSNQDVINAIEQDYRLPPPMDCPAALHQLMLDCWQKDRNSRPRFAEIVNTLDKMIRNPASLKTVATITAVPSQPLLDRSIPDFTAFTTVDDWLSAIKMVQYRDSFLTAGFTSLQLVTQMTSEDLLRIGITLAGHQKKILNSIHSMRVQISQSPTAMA

EGFR (human) = EGFR (human) (UniProt P00533)
CAMKK2 (human) = CAMKK2 (human) (UniProt Q96RR4)
MAP2K1 (human) = MAP2K1 (human) (UniProt Q02750)
KDR (human) = KDR (human) (UniProt P35968)
Sequence of KDR (human) (P35968 whole entry, looked up): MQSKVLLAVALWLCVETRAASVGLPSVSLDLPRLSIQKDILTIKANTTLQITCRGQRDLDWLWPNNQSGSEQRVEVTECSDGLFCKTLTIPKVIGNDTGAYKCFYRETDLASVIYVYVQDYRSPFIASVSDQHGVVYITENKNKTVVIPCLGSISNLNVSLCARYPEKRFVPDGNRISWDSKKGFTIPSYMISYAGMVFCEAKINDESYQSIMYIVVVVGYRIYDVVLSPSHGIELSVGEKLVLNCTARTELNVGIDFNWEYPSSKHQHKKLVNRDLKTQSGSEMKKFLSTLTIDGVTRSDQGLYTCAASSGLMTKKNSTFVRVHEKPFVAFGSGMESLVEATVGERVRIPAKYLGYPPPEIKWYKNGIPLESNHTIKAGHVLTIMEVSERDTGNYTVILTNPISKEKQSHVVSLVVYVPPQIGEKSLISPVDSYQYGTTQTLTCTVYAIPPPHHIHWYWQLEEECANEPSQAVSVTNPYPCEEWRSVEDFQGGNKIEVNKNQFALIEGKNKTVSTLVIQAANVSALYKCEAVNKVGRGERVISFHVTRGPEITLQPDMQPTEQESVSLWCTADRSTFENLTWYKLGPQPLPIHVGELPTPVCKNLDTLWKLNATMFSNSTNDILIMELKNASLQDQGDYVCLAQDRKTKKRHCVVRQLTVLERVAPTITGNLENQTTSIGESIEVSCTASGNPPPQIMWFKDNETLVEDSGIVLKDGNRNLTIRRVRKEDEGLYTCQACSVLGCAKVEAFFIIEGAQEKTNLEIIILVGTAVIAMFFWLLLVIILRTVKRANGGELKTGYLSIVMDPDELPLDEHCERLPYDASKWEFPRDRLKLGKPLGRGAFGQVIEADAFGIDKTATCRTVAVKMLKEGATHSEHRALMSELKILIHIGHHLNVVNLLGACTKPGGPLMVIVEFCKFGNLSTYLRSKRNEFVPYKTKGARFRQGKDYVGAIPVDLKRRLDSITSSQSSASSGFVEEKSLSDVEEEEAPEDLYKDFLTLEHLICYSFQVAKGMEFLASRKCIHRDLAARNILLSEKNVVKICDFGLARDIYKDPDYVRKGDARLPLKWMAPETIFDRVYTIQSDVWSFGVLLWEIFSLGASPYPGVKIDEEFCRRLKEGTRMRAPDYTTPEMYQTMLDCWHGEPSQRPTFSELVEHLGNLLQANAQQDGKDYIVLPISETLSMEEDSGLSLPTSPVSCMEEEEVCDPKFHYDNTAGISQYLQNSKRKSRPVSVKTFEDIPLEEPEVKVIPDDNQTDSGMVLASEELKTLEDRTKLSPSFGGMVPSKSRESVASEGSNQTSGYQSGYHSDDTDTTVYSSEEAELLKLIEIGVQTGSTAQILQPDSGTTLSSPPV

CAMK2G (human) = CAMK2G (human) (UniProt Q13555)
ZAP70 (human) = ZAP70 (human) (UniProt P43403)
Sequence of ZAP70 (human) (P43403 whole entry, looked up): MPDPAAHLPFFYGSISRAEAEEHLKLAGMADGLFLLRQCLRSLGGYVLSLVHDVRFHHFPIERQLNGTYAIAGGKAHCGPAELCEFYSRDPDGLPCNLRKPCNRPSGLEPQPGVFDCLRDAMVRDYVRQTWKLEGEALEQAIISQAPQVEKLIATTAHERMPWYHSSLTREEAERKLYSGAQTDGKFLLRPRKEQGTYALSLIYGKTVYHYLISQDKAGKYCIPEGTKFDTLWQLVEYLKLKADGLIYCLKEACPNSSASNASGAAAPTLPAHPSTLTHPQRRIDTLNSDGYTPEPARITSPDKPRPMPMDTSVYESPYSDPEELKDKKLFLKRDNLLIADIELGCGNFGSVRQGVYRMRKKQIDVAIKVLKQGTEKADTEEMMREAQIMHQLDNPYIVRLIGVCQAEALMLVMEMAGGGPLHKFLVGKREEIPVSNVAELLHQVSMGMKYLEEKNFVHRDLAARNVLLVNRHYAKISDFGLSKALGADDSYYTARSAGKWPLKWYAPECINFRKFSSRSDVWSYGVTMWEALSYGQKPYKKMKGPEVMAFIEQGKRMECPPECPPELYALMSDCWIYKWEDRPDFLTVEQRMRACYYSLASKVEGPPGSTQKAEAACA

STK25 (human) = STK25 (human) (UniProt O00506)
CLK4 (human) = CLK4 (human) (UniProt Q9HAZ1)
FGFR3 (human) = FGFR3 (human) (UniProt P22607)
Sequence of FGFR3 (human) (P22607 whole entry, looked up): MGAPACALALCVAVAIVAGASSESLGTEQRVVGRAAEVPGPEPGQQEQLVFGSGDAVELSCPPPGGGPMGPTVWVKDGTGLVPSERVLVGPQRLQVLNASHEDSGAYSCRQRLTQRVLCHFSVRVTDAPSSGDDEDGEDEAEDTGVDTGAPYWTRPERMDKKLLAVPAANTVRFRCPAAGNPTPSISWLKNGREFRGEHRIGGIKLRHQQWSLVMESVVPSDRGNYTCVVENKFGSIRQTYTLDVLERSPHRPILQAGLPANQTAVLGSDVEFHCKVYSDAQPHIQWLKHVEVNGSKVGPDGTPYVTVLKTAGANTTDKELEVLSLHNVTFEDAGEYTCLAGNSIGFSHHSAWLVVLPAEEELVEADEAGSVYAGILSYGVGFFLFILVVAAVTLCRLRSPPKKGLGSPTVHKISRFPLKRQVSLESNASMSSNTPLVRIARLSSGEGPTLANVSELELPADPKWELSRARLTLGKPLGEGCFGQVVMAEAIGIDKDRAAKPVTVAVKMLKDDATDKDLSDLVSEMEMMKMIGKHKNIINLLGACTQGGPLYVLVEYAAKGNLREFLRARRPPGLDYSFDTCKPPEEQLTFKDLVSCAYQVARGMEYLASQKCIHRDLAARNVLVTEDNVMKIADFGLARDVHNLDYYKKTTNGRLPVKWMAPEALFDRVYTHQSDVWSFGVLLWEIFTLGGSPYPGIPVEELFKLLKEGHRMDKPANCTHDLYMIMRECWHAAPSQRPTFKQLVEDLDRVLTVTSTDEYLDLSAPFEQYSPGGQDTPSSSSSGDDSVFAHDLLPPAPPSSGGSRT

CDK3 CCNE1 (human) = CDK3 CCNE1 (human) (UniProt Q00526+P24864)
PIM3 (human) = PIM3 (human) (UniProt Q86V86)
SRPK1 (human) = SRPK1 (human) (UniProt Q96SB4)
EPHA2 (human) = EPHA2 (human) (UniProt P29317)
MAPK3 (human) = MAPK3 (human) (UniProt P27361)
EPHB2 (human) = EPHB2 (human) (UniProt P29323)
GSK3A (human) = GSK3A (human) (UniProt P49840)
WEE1 (human) = WEE1 (human) (UniProt P30291)
GRK6 (human) = GRK6 (human) (UniProt P43250)
PRKG2 (human) = PRKG2 (human) (UniProt Q13237)
Sequence of PRKG2 (human) (Q13237 whole entry, looked up): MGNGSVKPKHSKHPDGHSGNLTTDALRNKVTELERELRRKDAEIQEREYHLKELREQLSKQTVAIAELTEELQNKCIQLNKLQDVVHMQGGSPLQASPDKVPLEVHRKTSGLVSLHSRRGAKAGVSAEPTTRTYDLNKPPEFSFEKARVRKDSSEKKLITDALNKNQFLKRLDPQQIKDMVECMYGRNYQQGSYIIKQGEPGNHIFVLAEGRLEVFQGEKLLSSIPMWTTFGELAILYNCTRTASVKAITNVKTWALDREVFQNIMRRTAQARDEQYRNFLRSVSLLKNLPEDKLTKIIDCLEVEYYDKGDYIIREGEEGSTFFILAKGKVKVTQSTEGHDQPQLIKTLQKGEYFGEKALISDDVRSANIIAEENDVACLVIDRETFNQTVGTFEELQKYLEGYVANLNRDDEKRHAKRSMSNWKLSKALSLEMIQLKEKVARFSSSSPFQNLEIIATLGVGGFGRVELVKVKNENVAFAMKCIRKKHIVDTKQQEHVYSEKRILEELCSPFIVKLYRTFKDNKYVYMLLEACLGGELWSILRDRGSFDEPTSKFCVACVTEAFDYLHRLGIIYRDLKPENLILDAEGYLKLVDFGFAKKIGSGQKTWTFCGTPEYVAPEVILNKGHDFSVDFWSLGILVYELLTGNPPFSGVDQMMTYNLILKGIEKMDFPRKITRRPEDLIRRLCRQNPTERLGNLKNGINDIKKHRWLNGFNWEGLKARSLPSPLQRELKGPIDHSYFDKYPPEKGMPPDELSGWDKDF

ULK1 (human) = ULK1 (human) (UniProt O75385)
PAK6 (human) = PAK6 (human) (UniProt Q9NQU5)
MAP3K2 (human) = MAP3K2 (human) (UniProt Q9Y2U5)
MAP3K9 (human) = MAP3K9 (human) (UniProt P80192)
SYK (human) = SYK (human) (UniProt P43405)
GSK3B (human) = GSK3B (human) (UniProt P49841)
CSNK1D (human) = CSNK1D (human) (UniProt P48730)
CSK (human) = CSK (human) (UniProt P41240)
Sequence of CSK (human) (P41240 whole entry, looked up): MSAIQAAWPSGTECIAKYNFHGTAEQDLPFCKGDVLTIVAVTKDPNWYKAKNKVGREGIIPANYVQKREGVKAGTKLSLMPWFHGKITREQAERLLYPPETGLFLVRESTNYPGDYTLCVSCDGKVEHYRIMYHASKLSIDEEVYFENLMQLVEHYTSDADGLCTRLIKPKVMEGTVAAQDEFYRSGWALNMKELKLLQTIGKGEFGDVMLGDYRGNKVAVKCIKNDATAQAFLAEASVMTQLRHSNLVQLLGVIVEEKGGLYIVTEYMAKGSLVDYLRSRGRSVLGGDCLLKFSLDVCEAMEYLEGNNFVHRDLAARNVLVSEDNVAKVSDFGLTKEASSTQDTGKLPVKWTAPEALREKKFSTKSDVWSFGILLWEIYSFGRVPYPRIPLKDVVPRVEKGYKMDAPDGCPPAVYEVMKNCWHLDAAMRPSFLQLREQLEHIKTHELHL

DYRK4 (human) = DYRK4 (human) (UniProt Q9NR20)
EPHA5 (human) = EPHA5 (human) (UniProt P54756)
CDC42BPA (human) = CDC42BPA (human) (UniProt Q5VT25)
RPS6KA5 KD2 (human) = RPS6KA5 KD2 (human) (UniProt O75582)
NEK4 (human) = NEK4 (human) (UniProt P51957)
RPS6KA3 KD1 KD2 (human) = RPS6KA3 KD1 KD2 (human) (UniProt P51812)

Cc1nc(-c2ccccc2)c(-c2ccncc2)o1
residual activity (ERBB2 (human)): 105% | residual activity (BRSK1 (human)): 99.8% | residual activity (BTK (human)): 98.3% | residual activity (TGFBR1 (human)): 102% | residual activity (MAPK1 (human)): 90.3% | residual activity (MAP4K5 (human)): 96.2% | residual activity (SRPK3 (human)): 103% | residual activity (CAMK1 (human)): 105% | residual activity (EPHB1 (human)): 107% | residual activity (EGFR (human)): 89.4% | residual activity (CAMKK2 (human)): 105% | residual activity (MAP2K1 (human)): 90.7% | residual activity (KDR (human)): 85.2% | residual activity (CAMK2G (human)): 91.7% | residual activity (ZAP70 (human)): 98.8% | residual activity (STK25 (human)): 104% | residual activity (CLK4 (human)): 121% | residual activity (FGFR3 (human)): 95.6% | residual activity (CDK3 CCNE1 (human)): 98.1% | residual activity (PIM3 (human)): 106% | residual activity (SRPK1 (human)): 101% | residual activity (EPHA2 (human)): 104% | residual activity (MAPK3 (human)): 103% | residual activity (EPHB2 (human)): 99.8% | residual activity (GSK3A (human)): 112% | residual activity (WEE1 (human)): 91.9% | residual activity (GRK6 (human)): 105% | residual activity (PRKG2 (human)): 85% | residual activity (ULK1 (human)): 84.6% | residual activity (PAK6 (human)): 103% | residual activity (MAP3K2 (human)): 102% | residual activity (MAP3K9 (human)): 79.4% | residual activity (SYK (human)): 99.1% | residual activity (GSK3B (human)): 105% | residual activity (CSNK1D (human)): 44% | residual activity (CSK (human)): 107% | residual activity (DYRK4 (human)): 91.2% | residual activity (EPHA5 (human)): 91.4% | residual activity (CDC42BPA (human)): 91.9% | residual activity (RPS6KA5 KD2 (human)): 107% | residual activity (NEK4 (human)): 100% | residual activity (RPS6KA3 KD1 KD2 (human)): 103%

O=C1C(Cl)=C(N2C(=O)CCC2=O)C(=O)c2ccccc21
residual activity (ERBB2 (human)): 95.4% | residual activity (BRSK1 (human)): 96.9% | residual activity (BTK (human)): 103% | residual activity (TGFBR1 (human)): 101% | residual activity (MAPK1 (human)): 73.6% | residual activity (MAP4K5 (human)): 90.4% | residual activity (SRPK3 (human)): 93.6% | residual activity (CAMK1 (human)): 98.3% | residual activity (EPHB1 (human)): 97.2% | residual activity (EGFR (human)): 98.4% | residual activity (CAMKK2 (human)): 86.1% | residual activity (MAP2K1 (human)): 76.5% | residual activity (KDR (human)): 88.3% | residual activity (CAMK2G (human)): 104% | residual activity (ZAP70 (human)): 93.8% | residual activity (STK25 (human)): 107% | residual activity (CLK4 (human)): 94.1% | residual activity (FGFR3 (human)): 106% | residual activity (CDK3 CCNE1 (human)): 102% | residual activity (PIM3 (human)): 101% | residual activity (SRPK1 (human)): 103% | residual activity (EPHA2 (human)): 107% | residual activity (MAPK3 (human)): 99.3% | residual activity (EPHB2 (human)): 98.7% | residual activity (GSK3A (human)): 99.8% | residual activity (WEE1 (human)): 93% | residual activity (GRK6 (human)): 98.5% | residual activity (PRKG2 (human)): 114% | residual activity (ULK1 (human)): 107% | residual activity (PAK6 (human)): 89.6% | residual activity (MAP3K2 (human)): 108% | residual activity (MAP3K9 (human)): 106% | residual activity (SYK (human)): 95.9% | residual activity (GSK3B (human)): 100% | residual activity (CSNK1D (human)): 99.4% | residual activity (CSK (human)): 79.5% | residual activity (DYRK4 (human)): 94.1% | residual activity (EPHA5 (human)): 113% | residual activity (CDC42BPA (human)): 103% | residual activity (RPS6KA5 KD2 (human)): 101% | residual activity (NEK4 (human)): 99.6% | residual activity (RPS6KA3 KD1 KD2 (human)): 101%

CN(C)CCCn1cc(C2=C(c3c[nH]c4ccccc34)C(=O)NC2=O)c2ccccc21
residual activity (ERBB2 (human)): 96.5% | residual activity (BRSK1 (human)): 76.9% | residual activity (BTK (human)): 93.8% | residual activity (TGFBR1 (human)): 102% | residual activity (MAPK1 (human)): 100% | residual activity (MAP4K5 (human)): 68.5% | residual activity (SRPK3 (human)): 86.9% | residual activity (CAMK1 (human)): 82.7% | residual activity (EPHB1 (human)): 87.4% | residual activity (EGFR (human)): 94% | residual activity (CAMKK2 (human)): 59.8% | residual activity (MAP2K1 (human)): 83.6% | residual activity (KDR (human)): 65.5% | residual activity (CAMK2G (human)): 73.3% | residual activity (ZAP70 (human)): 93% | residual activity (STK25 (human)): 69.7% | residual activity (CLK4 (human)): 44.8% | residual activity (FGFR3 (human)): 87.9% | residual activity (CDK3 CCNE1 (human)): 93.2% | residual activity (PIM3 (human)): 1.9% | residual activity (SRPK1 (human)): 87% | residual activity (EPHA2 (human)): 81.8% | residual activity (MAPK3 (human)): 108% | residual activity (EPHB2 (human)): 100% | residual activity (GSK3A (human)): 11.2% | residual activity (WEE1 (human)): 101% | residual activity (GRK6 (human)): 72% | residual activity (PRKG2 (human)): 38.7% | residual activity (ULK1 (human)): 84.7% | residual activity (PAK6 (human)): 101% | residual activity (MAP3K2 (human)): 82.8% | residual activity (MAP3K9 (human)): 46% | residual activity (SYK (human)): 90% | residual activity (GSK3B (human)): 7.01% | residual activity (CSNK1D (human)): 97.6% | residual activity (CSK (human)): 97% | residual activity (DYRK4 (human)): 95% | residual activity (EPHA5 (human)): 92% | residual activity (CDC42BPA (human)): 97.1% | residual activity (RPS6KA5 KD2 (human)): 17% | residual activity (NEK4 (human)): 94.3% | residual activity (RPS6KA3 KD1 KD2 (human)): 2.47%

O=C1c2ccccc2-c2nc3nnnn3nc21
residual activity (ERBB2 (human)): 22.2% | residual activity (BRSK1 (human)): 84.8% | residual activity (BTK (human)): 90.6% | residual activity (TGFBR1 (human)): 107% | residual activity (MAPK1 (human)): 87.5% | residual activity (MAP4K5 (human)): 78.7% | residual activity (SRPK3 (human)): 89.4% | residual activity (CAMK1 (human)): 68.7% | residual activity (EPHB1 (human)): 89.5% | residual activity (EGFR (human)): 37% | residual activity (CAMKK2 (human)): 76.9% | residual activity (MAP2K1 (human)): 88.7% | residual activity (KDR (human)): 1.95% | residual activity (CAMK2G (human)): 91.1% | residual activity (ZAP70 (human)): 68.2% | residual activity (STK25 (human)): 101% | residual activity (CLK4 (human)): 78.3% | residual activity (FGFR3 (human)): 26.7% | residual activity (CDK3 CCNE1 (human)): 73.4% | residual activity (PIM3 (human)): 93.3% | residual activity (SRPK1 (human)): 109% | residual activity (EPHA2 (human)): 100% | residual activity (MAPK3 (human)): 87% | residual activity (EPHB2 (human)): 86.1% | residual activity (GSK3A (human)): 88.7% | residual activity (WEE1 (human)): 70.9% | residual activity (GRK6 (human)): 58% | residual activity (PRKG2 (human)): 140% | residual activity (ULK1 (human)): 107% | residual activity (PAK6 (human)): 108% | residual activity (MAP3K2 (human)): 83% | residual activity (MAP3K9 (human)): 63.3% | residual activity (SYK (human)): 94.8% | residual activity (GSK3B (human)): 83.5% | residual activity (CSNK1D (human)): 86.8% | residual activity (CSK (human)): 84.8% | residual activity (DYRK4 (human)): 88.5% | residual activity (EPHA5 (human)): 81.5% | residual activity (CDC42BPA (human)): 91.6% | residual activity (RPS6KA5 KD2 (human)): 68.7% | residual activity (NEK4 (human)): 96.1% | residual activity (RPS6KA3 KD1 KD2 (human)): 75.1%
